The results in this text go back to patent EP4810052A2, “HCRHR2 SELECTIVE POLYPEPTIDES” (Gubra A/S, priority 2023, dated 2026).

The target in assay [1] is T1, hCRHR2 (Homo sapiens, UniProt Q13324).
T1 sequence (Q13324 1-411): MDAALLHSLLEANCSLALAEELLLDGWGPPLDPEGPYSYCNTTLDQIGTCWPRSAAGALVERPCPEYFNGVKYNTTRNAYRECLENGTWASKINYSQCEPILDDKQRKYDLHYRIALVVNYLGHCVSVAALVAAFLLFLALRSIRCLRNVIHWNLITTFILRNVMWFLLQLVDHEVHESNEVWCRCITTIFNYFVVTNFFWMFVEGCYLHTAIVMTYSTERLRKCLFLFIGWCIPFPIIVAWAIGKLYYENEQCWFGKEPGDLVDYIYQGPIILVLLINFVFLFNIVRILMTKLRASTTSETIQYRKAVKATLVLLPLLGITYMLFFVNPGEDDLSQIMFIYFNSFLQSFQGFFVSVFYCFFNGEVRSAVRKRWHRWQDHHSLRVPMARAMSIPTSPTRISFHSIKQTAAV
Kind of assay: HTRF cAMP assay, determination of hCRHR2 potency (peptide libraries 5 conc., purified peptides 11 conc.). Type of assay: cell-based. In a few lines: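 Read-out was HTRF competitive cAMP detection (d2-labelled cAMP, cryptate-labelled antibody) in suspended, freshly thawed CHO-K1 cells stably carrying human CRHR2.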

The target in assay [2] is T2, hCRHR1 (Homo sapiens, UniProt P34998).
T2 sequence (P34998 24-415): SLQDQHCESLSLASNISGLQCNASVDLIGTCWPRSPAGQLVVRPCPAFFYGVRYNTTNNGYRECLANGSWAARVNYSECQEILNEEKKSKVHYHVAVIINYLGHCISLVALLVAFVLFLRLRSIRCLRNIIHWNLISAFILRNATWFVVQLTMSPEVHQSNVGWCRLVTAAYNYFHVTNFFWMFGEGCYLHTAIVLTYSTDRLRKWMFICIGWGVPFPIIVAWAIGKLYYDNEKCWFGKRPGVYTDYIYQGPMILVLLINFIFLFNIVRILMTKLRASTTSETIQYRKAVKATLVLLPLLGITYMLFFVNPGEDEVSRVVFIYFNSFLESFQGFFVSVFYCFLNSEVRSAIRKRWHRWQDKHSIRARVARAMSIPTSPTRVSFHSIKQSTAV
Kind of assay: HTRF cAMP assay, determination of hCRHR1 potency (peptide libraries 5 conc., purified peptides 11 conc.). In kind it is cell-based. In a few lines: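 Cellular cAMP was read by time-resolved FRET between d2-labelled cAMP and cryptate anti-cAMP antibody. The cells were freshly thawed suspension CHO-K1 cells stably expressing human CRHR1.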

Setting [3] is: library peptides, matched molecular pairs L vs Nle in position X^38, read-out: Potency hCRHR2 pEC50 (converted).
Setting [4] is: library peptides, matched molecular pairs L vs Nle in position X^38, read-out: Potency hCRHR1 pEC50 (converted).

Read-outs that look alike come from different tables or passages of the source. Starred links: 1 amine or outer side, 2 acyl side, 3 side chain; linkers in the order of their positions; H or OH if unused. Non-standard residues stand in square brackets, D forms with d. Residues, ends and D or L forms follow the SMILES beside them. Groups on a side chain read outwards from the residue. *: point of attachment. C20 diacid = O=C(O)CCCCCCCCCCCCCCCCCCC(=O)*; γGlu = O=C(O)[C@H](CCC(=O)[*:2])N[*:1]; NMeI = CC[C@H](C)[C@H](NC)C(=O)O; Nle = CCCC[C@H](N)C(=O)O; AEEA = NCCOCCOCC(=O)O; Aib = CC(C)(N)C(=O)O

In the case of `CC[C@H](C)[C@H](N)C(=O)N[C@H](C(=O)N[C@@H](CC(C)C)C(=O)N[C@@H](CO)C(=O)N[C@@H](CC(C)C)C(=O)N[C@@H](CC(=O)O)C(=O)N[C@H](C(=O)N1CCC[C@H]1C(=O)N[C@H](C(=O)NCC(=O)N[C@@H](CC(C)C)C(=O)N[C@@H](CC(C)C)C(=O)N[C@@H](CCC(N)=O)C(=O)N[C@H](C(=O)N[C@@H](CC(C)C)C(=O)N[C@@H](CC(C)C)C(=O)N[C@@H](CO)C(=O)N[C@@H](CCC(N)=O)C(=O)N[C@@H](C)C(=O)N[C@@H](CCCNC(=N)N)C(=O)N[C@@H](C)C(=O)N[C@@H](CCCNC(=N)N)C(=O)N[C@@H](C)C(=O)N[C@@H](C)C(=O)N[C@@H](CCCNC(=N)N)C(=O)N[C@@H](CCC(=O)O)C(=O)N[C@@H](CCC(N)=O)C(=O)N[C@@H](C)C(=O)N[C@@H](CCCCNC(=O)COCCOCCNC(=O)COCCOCCNC(=O)CC[C@H](NC(=O)CC[C@H](NC(=O)CCCCCCCCCCCCCCCCCCC(=O)O)C(=O)O)C(=O)O)C(=O)N[C@H](C(=O)N[C@@H](CC(N)=O)C(=O)N[C@@H](C)C(=O)N[C@@H](CCC(=O)O)C(=O)N[C@H](C(=O)N[C@@H](CC(C)C)C(=O)N[C@@H](C)C(=O)N[C@@H](CCC(=O)O)C(=O)N[C@H](C(N)=O)[C@@H](C)CC)[C@@H](C)CC)[C@@H](C)O)[C@@H](C)CC)[C@@H](C)CC)C(C)C)C(C)C` [compound 88] (H-IVLSLDVPIGLLQILLSQARARAAREQAK([AEEA-AEEA-γGlu-γGlu-C20 diacid])TNAEILAEI-NH2), the EC50 in assay [1] (setting [3]) is 0.631 nM; in assay [2] (setting [4]), 39800 nM.

For the compound `CC[C@H](C)[C@H](N)C(=O)N[C@H](C(=O)N[C@@H](CC(C)C)C(=O)N[C@@H](CO)C(=O)N[C@@H](CC(C)C)C(=O)N[C@@H](CC(=O)O)C(=O)N[C@H](C(=O)N1CCC[C@H]1C(=O)N[C@H](C(=O)NCC(=O)N[C@@H](CC(C)C)C(=O)N[C@@H](CC(C)C)C(=O)N[C@@H](CCC(N)=O)C(=O)N[C@H](C(=O)N[C@@H](CC(C)C)C(=O)N[C@@H](CC(C)C)C(=O)N[C@@H](CCC(=O)O)C(=O)N[C@@H](CCC(N)=O)C(=O)N[C@@H](C)C(=O)N[C@@H](CCCNC(=N)N)C(=O)N[C@@H](C)C(=O)N[C@@H](CCCNC(=N)N)C(=O)N[C@@H](CO)C(=O)N[C@@H](C)C(=O)N[C@@H](CCCNC(=N)N)C(=O)N[C@@H](CCC(=O)O)C(=O)N[C@@H](CCC(N)=O)C(=O)N[C@@H](C)C(=O)N[C@@H](CCCCNC(=O)COCCOCCNC(=O)COCCOCCNC(=O)CC[C@H](NC(=O)CC[C@H](NC(=O)CCCCCCCCCCCCCCCCCCC(=O)O)C(=O)O)C(=O)O)C(=O)N[C@H](C(=O)N[C@@H](CC(N)=O)C(=O)N[C@@H](C)C(=O)N[C@@H](CCC(=O)O)C(=O)N[C@H](C(=O)N[C@@H](CC(C)C)C(=O)N[C@@H](C)C(=O)N[C@@H](CCC(=O)O)C(=O)N[C@H](C(N)=O)C(C)C)[C@@H](C)CC)[C@@H](C)O)[C@@H](C)CC)[C@@H](C)CC)C(C)C)C(C)C` [compound 60] (H-IVLSLDVPIGLLQILLEQARARSAREQAK([AEEA-AEEA-γGlu-γGlu-C20 diacid])TNAEILAEV-NH2), the EC50 in assay [1] (setting [3]) was 0.501 nM; in assay [2] (setting [4]), 25100 nM.

Take `CCCC[C@H](NC(=O)[C@@H](NC(=O)[C@H](CCC(=O)O)NC(=O)[C@H](C)NC(=O)[C@H](CC(N)=O)NC(=O)[C@@H](NC(=O)[C@H](CCCCNC(=O)COCCOCCNC(=O)COCCOCCNC(=O)CC[C@H](NC(=O)CC[C@H](NC(=O)CCCCCCCCCCCCCCCCCCC(=O)O)C(=O)O)C(=O)O)NC(=O)[C@H](C)NC(=O)[C@H](CCC(=O)O)NC(=O)[C@H](CCC(N)=O)NC(=O)[C@H](CCCNC(=N)N)NC(=O)[C@H](CC(C)C)NC(=O)[C@H](C)NC(=O)[C@H](CCCNC(=N)N)NC(=O)[C@H](C)NC(=O)[C@H](CCCNC(=N)N)NC(=O)[C@H](C)NC(=O)[C@H](CCC(N)=O)NC(=O)[C@H](CCC(=O)O)NC(=O)[C@H](CC(C)C)NC(=O)[C@H](CC(C)C)NC(=O)[C@@H](NC(=O)[C@H](CCC(N)=O)NC(=O)[C@H](CC(C)C)NC(=O)[C@H](CC(C)C)NC(=O)CNC(=O)[C@@H](NC(=O)[C@@H]1CCCN1C(=O)[C@@H](NC(=O)[C@H](CC(=O)O)NC(=O)[C@H](CC(C)C)NC(=O)[C@H](CO)NC(=O)[C@H](CC(C)C)NC(=O)[C@@H](NC(=O)[C@@H](N)[C@@H](C)CC)C(C)C)C(C)C)[C@@H](C)CC)[C@@H](C)CC)[C@@H](C)O)[C@@H](C)CC)C(=O)N[C@@H](C)C(=O)N[C@@H](CCC(=O)O)C(=O)N[C@H](C(N)=O)C(C)C` [SEQ ID NO: 38] (H-IVLSLDVPIGLLQILLEQARARALRQEAK([AEEA-AEEA-γGlu-γGlu-C20 diacid])TNAEI[Nle]AEV-NH2): the EC50 was 0.398 nM in assay [1] (Table 3, matched molecular pairs X^38 L vs Nle, peptide library of Example 4, read-out: hCRHR2 pEC50 (converted)) and 63100 nM in assay [2] (Table 3, matched molecular pairs X^38 L vs Nle, peptide library of Example 4, read-out: hCRHR1 pEC50 (converted)).

`CC[C@H](C)[C@H](N)C(=O)N[C@H](C(=O)N[C@@H](CC(C)C)C(=O)N[C@@H](CO)C(=O)N[C@@H](CC(C)C)C(=O)N[C@@H](CC(=O)O)C(=O)N[C@H](C(=O)N1CCC[C@H]1C(=O)N[C@H](C(=O)NCC(=O)N[C@@H](CC(C)C)C(=O)N[C@@H](CC(C)C)C(=O)N[C@@H](CCC(N)=O)C(=O)N[C@H](C(=O)N[C@@H](CC(C)C)C(=O)N[C@@H](CC(C)C)C(=O)N[C@@H](CCC(=O)O)C(=O)N[C@@H](CCC(N)=O)C(=O)N[C@@H](C)C(=O)N[C@@H](CCCNC(=N)N)C(=O)N[C@@H](C)C(=O)N[C@@H](CCC(=O)O)C(=O)N[C@@H](C)C(=O)N[C@@H](CC(C)C)C(=O)N[C@@H](CCCNC(=N)N)C(=O)N[C@@H](CCC(N)=O)C(=O)N[C@@H](CCC(N)=O)C(=O)N[C@@H](C)C(=O)N[C@@H](CCCCNC(=O)COCCOCCNC(=O)COCCOCCNC(=O)CC[C@H](NC(=O)CC[C@H](NC(=O)CCCCCCCCCCCCCCCCCCC(=O)O)C(=O)O)C(=O)O)C(=O)N[C@H](C(=O)N[C@@H](CC(N)=O)C(=O)N[C@@H](C)C(=O)N[C@@H](CCC(=O)O)C(=O)N[C@H](C(=O)N[C@@H](CC(C)C)C(=O)N[C@@H](C)C(=O)N[C@@H](CCC(=O)O)C(=O)N[C@H](C(N)=O)C(C)C)[C@@H](C)CC)[C@@H](C)O)[C@@H](C)CC)[C@@H](C)CC)C(C)C)C(C)C` [compound 58] (H-IVLSLDVPIGLLQILLEQARAEALRQQAK([AEEA-AEEA-γGlu-γGlu-C20 diacid])TNAEILAEV-NH2): the results for the EC50 in assay [1] (setting [3]) and in assay [2] (setting [4]) were 0.316 nM and 100 nM, respectively.

As for `CCCC[C@H](NC(=O)[C@@H](NC(=O)[C@H](CCC(=O)O)NC(=O)[C@H](C)NC(=O)[C@H](CC(N)=O)NC(=O)C(C)(C)NC(=O)[C@H](CCCCNC(=O)COCCOCCNC(=O)COCCOCCNC(=O)CC[C@H](NC(=O)CC[C@H](NC(=O)CCCCCCCCCCCCCCCCCCC(=O)O)C(=O)O)C(=O)O)NC(=O)[C@H](C)NC(=O)[C@H](CCC(N)=O)NC(=O)[C@H](CCC(=O)O)NC(=O)[C@H](CCCNC(=N)N)NC(=O)[C@H](C)NC(=O)[C@H](C)NC(=O)[C@H](CCCNC(=N)N)NC(=O)[C@H](C)NC(=O)[C@H](CCCNC(=N)N)NC(=O)[C@H](C)NC(=O)[C@H](CCC(N)=O)NC(=O)[C@H](CCC(=O)O)NC(=O)[C@H](CC(C)C)NC(=O)[C@H](CC(C)C)NC(=O)[C@@H](NC(=O)[C@H](CCC(N)=O)NC(=O)[C@H](CC(C)C)NC(=O)[C@H](CC(C)C)NC(=O)CNC(=O)[C@@H](NC(=O)[C@@H]1CCCN1C(=O)[C@@H](NC(=O)[C@H](CC(=O)O)NC(=O)[C@H](CC(C)C)NC(=O)[C@H](CO)NC(=O)[C@H](CC(C)C)NC(=O)[C@@H](NC(=O)[C@@H](NC)[C@@H](C)CC)C(C)C)C(C)C)[C@@H](C)CC)[C@@H](C)CC)[C@@H](C)CC)C(=O)N[C@@H](C)C(=O)N[C@@H](CCC(=O)O)C(=O)N[C@H](C(N)=O)C(C)C` [compound 124] (H-[NMeI]VLSLDVPIGLLQILLEQARARAAREQAK([AEEA-AEEA-γGlu-γGlu-C20 diacid])[Aib]NAEI[Nle]AEV-NH2), the EC50 is 0.00631 nM in assay [1] (Table 4, library peptides having X^38 = Nle, read-out: hCRHR2 pEC50 (converted)) and 251 nM in assay [2] (Table 4, library peptides having X^38 = Nle, read-out: hCRHR1 pEC50 (converted)). Moreover, the “Selectivity hCRHR1 EC50/hCRHR2 EC50” value in assay [1] (Table 4, ratio, or comparison with Ref. 1 (SEQ ID NO: 205) / Ref. 2 (SEQ ID NO: 124)) was 40378.
